From ChEMBL document CHEMBL1201862, “PubChem BioAssay data set” (2004)
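Assay format: 96-well plates, 48-hour exposure. GI50 = concentration required for 50% inhibition of growth.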 Active and inactive are the calls of the source. Cut-off read from the data, not from the text of the source: active = GI50 up to about 1.1 µM and inactive = higher.

Key:
Test in all cases: inhibition of tumour cell growth, NCI panel, 48 h
[1] = tested on: OVCAR-3
[2] = tested on: SW-620
[3] = tested on: MCF7
[4] = tested on: SNB-19
[5] = tested on: SK-OV-3
[6] = tested on: HT-29
[7] = tested on: NCI/ADR-RES
[8] = tested on: BT-549
[9] = tested on: NCI-H226
[10] = tested on: SK-MEL-5
[11] = tested on: M14
[12] = tested on: CCRF-CEM
[13] = tested on: DU-145
[14] = tested on: HCT-15
[15] = tested on: SN12C
[16] = tested on: T47D
[17] = tested on: NCI-H23
[18] = tested on: Hs-578T
[19] = tested on: OVCAR-8
[20] = tested on: IGROV-1
[21] = tested on: SK-MEL-2
[22] = tested on: SK-MEL-28
[23] = tested on: UACC-62
[24] = tested on: U-251
[25] = tested on: SF-539
[26] = tested on: HCT-116
[27] = tested on: RPMI-8226
[28] = tested on: SF-268
[29] = tested on: HOP-62
[30] = tested on: OVCAR-5
[31] = tested on: 786-0
[32] = tested on: NCI-H460
[33] = tested on: SNB-75
[34] = tested on: RXF 393
[35] = tested on: A498
[36] = tested on: HL-60
[37] = tested on: TK-10
[38] = tested on: ACHN
[39] = tested on: COLO 205
[40] = tested on: UACC-257
[41] = tested on: MDA-MB-231
[42] = tested on: A549
[43] = tested on: LOX IMVI
[44] = tested on: PC-3
[45] = tested on: HOP-92
[46] = tested on: MDA-MB-435
[47] = tested on: UO-31
[48] = tested on: OVCAR-4
[49] = tested on: K562
[50] = tested on: Malme-3M
[51] = tested on: HCC 2998
[52] = tested on: SF-295
[53] = tested on: MOLT-4
[54] = tested on: SR
[55] = tested on: CAKI-1
[56] = tested on: MDA-N
[57] = tested on: EKVX
[58] = tested on: NCI-H522

Compound: CC(SC(=S)N1CCCC1)C(=O)Nc1nnc(-c2ccc(Cl)cc2)o1 (centres undefined)
- GI50 [1]: 32.7 µM (inactive)
- GI50 [2]: 36.6 µM (inactive)
- GI50 [3]: 33.7 µM (inactive)
- GI50 [4]: 35.6 µM (inactive)
- GI50 [5]: 52.7 µM (inactive)
- GI50 [6]: 21.8 µM (inactive)
- GI50 [7]: 22.8 µM (inactive)
- GI50 [8]: 39.8 µM (inactive)
- GI50 [9]: 40.3 µM (inactive)
- GI50 [10]: 29.5 µM (inactive)
- GI50 [11]: 15.5 µM (inactive)
- GI50 [12]: < 0.01 µM (active)
- GI50 [13]: 44.2 µM (inactive)
- GI50 [14]: 17 µM
- GI50 [15]: 17.7 µM (inactive)
- GI50 [16]: 48.8 µM (inactive)
- GI50 [17]: 39.5 µM (inactive)
- GI50 [18]: 44.8 µM (inactive)
- GI50 [19]: 40.1 µM (inactive)
- GI50 [20]: 32 µM (inactive)
- GI50 [21]: 30.5 µM (inactive)
- GI50 [22]: 46.7 µM (inactive)
- GI50 [23]: 30.5 µM (inactive)
- GI50 [24]: 29.9 µM (inactive)
- GI50 [25]: 85.3 µM (inactive)
- GI50 [26]: 19.5 µM (inactive)
- GI50 [27]: 14.6 µM (inactive)
- GI50 [28]: 18 µM (inactive)
- GI50 [29]: 34.1 µM (inactive)
- GI50 [30]: 33.2 µM (inactive)
- GI50 [31]: 14.1 µM (inactive)
- GI50 [32]: 39.4 µM (inactive)
- GI50 [33]: 45.9 µM (inactive)
- GI50 [34]: 55.2 µM (inactive)
- GI50 [35]: 34 µM (inactive)
- GI50 [36]: < 0.01 µM (active)
- GI50 [37]: 50.4 µM (inactive)
- GI50 [38]: 33 µM (inactive)
- GI50 [39]: 37.6 µM (inactive)
- GI50 [40]: 40.4 µM (inactive)
- GI50 [41]: 40 µM (inactive)
- GI50 [42]: 31 µM (inactive)
- GI50 [43]: 18.7 µM (inactive)
- GI50 [44]: 35.6 µM (inactive)
- GI50 [45]: 65.8 µM (inactive)
- GI50 [46]: 36.1 µM (inactive)
- GI50 [47]: 19.2 µM (inactive)
- GI50 [48]: 35.5 µM (inactive)
- GI50 [49]: 8.85 µM (inactive)
- GI50 [50]: 23.8 µM (inactive)
- GI50 [51]: 57.4 µM (inactive)

Compound: C[C@@H]1C(O)CC[C@H](C)C12CC=CC2=O (some centres undefined)
- GI50 [1]: > 100 µM (inactive)
- GI50 [2]: > 100 µM (inactive)
- GI50 [3]: > 100 µM (inactive)
- GI50 [4]: > 100 µM (inactive)
- GI50 [5]: > 100 µM (inactive)
- GI50 [6]: > 100 µM (inactive)
- GI50 [7]: > 100 µM (inactive)
- GI50 [9]: > 100 µM (inactive)
- GI50 [10]: > 100 µM (inactive)
- GI50 [13]: > 100 µM (inactive)
- GI50 [14]: > 100 µM
- GI50 [15]: > 100 µM (inactive)
- GI50 [16]: > 100 µM (inactive)
- GI50 [17]: > 100 µM (inactive)
- GI50 [18]: > 100 µM (inactive)
- GI50 [20]: > 100 µM (inactive)
- GI50 [21]: > 100 µM (inactive)
- GI50 [22]: > 100 µM (inactive)
- GI50 [23]: > 100 µM (inactive)
- GI50 [24]: > 100 µM (inactive)
- GI50 [25]: > 100 µM (inactive)
- GI50 [26]: > 100 µM (inactive)
- GI50 [27]: > 100 µM (inactive)
- GI50 [28]: > 100 µM (inactive)
- GI50 [29]: > 100 µM (inactive)
- GI50 [52]: > 100 µM (inactive)
- GI50 [30]: > 100 µM (inactive)
- GI50 [31]: > 100 µM (inactive)
- GI50 [32]: > 100 µM (inactive)
- GI50 [34]: > 100 µM (inactive)
- GI50 [53]: > 100 µM (inactive)
- GI50 [35]: > 100 µM (inactive)
- GI50 [36]: > 100 µM (inactive)
- GI50 [54]: > 100 µM (inactive)
- GI50 [37]: > 100 µM (inactive)
- GI50 [38]: > 100 µM (inactive)
- GI50 [39]: > 100 µM (inactive)
- GI50 [55]: > 100 µM (inactive)
- GI50 [40]: > 100 µM (inactive)
- GI50 [56]: > 100 µM (inactive)
- GI50 [41]: > 100 µM (inactive)
- GI50 [42]: > 100 µM (inactive)
- GI50 [43]: > 100 µM (inactive)
- GI50 [44]: > 100 µM (inactive)
- GI50 [45]: > 100 µM (inactive)
- GI50 [57]: > 100 µM (inactive)
- GI50 [46]: > 100 µM (inactive)
- GI50 [47]: > 100 µM (inactive)
- GI50 [48]: > 100 µM (inactive)
- GI50 [58]: > 100 µM (inactive)
- GI50 [49]: > 100 µM (inactive)
- GI50 [50]: > 100 µM (inactive)
- GI50 [51]: > 100 µM (inactive)
